Data: paper PMC3434217, “Specificity Determinants of the Silkworm Moth Sex Pheromone” (PLoS ONE, 2012)

Assays:
Format in all cases: cell-based
BmorOR1 [1] = biological target: T1, BmorOR1 (Bombyx mori, UniProt Q5WA61); experiment: two-electrode voltage clamp in Xenopus oocytes expressing BmorOR1 and BmorOrco (injection, source dose)
T1 construct: gene BmOR-1; full-length; with BmorOrco
T1 sequence (Q5WA61 1-430): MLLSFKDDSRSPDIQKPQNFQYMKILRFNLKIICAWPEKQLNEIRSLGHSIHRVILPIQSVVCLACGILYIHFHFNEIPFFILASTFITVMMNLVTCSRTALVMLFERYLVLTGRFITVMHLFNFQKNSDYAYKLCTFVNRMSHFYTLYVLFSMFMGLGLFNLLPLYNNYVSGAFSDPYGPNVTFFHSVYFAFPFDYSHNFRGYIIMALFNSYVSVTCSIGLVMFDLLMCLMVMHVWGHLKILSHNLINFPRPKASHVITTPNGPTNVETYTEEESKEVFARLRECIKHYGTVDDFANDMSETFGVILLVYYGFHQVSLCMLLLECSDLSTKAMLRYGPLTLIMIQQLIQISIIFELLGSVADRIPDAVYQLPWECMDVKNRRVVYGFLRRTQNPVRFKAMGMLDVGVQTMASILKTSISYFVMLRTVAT
T1 sequence (Q7YT34 1-472 partner): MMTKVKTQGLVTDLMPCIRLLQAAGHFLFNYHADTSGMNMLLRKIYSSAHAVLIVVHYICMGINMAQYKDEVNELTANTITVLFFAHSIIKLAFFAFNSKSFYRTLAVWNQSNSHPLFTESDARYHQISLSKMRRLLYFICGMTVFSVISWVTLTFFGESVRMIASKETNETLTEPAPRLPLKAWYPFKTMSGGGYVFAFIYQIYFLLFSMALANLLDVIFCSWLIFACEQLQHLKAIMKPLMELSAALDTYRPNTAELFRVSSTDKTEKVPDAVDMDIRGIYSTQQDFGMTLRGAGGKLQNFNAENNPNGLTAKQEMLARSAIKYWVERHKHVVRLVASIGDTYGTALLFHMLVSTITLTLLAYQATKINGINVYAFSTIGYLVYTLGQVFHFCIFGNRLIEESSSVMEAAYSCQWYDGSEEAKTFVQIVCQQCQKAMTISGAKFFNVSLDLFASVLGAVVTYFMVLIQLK

BmorOR1 [2] = biological target: T1, BmorOR1; experiment: two-electrode voltage clamp in Xenopus oocytes expressing BmorOR1 and BmorOrco (perfusion)
BmorOR1 [3] = biological target: T1, BmorOR1; experiment: two-electrode voltage clamp in Xenopus oocytes expressing BmorOR1 and BmorOrco, dose-response

SMILES | EC50 (BmorOR1 [3]) [µM] | further results
CCC/C=C\C=C\CCCCCCCCC=O [bombykal] |  | EC50 (BmorOR1 [1]): 9.6 µM
CCC/C=C\C=C\CCCCCCCCCO [compound 1, (10E,12Z)-hexadecadien-1-ol] |  | EC50 (BmorOR1 [2]): 0.0454 µM
CCC/C=C\C=C\CCCCC#CCCCO [compound 10] | 17 | 
CCC/C=C\C=C\CCCC/C=C\CCCO [compound 11, (4Z,10E,12Z)-hexadecatrien-1-ol] | 13 | 
